Results on twelve compounds are retold here after ChEMBL document CHEMBL3769361, “Novel squaramides with in vitro liver stage antiplasmodial activity” (Bioorg Med Chem, 2016).

What is called IC50 is the concentration needed to halve the response being measured.

Series [1] deals with Plasmodium berghei. Nature of the series: Potency index, ratio of bulaquine IC50 to compound IC50 for liver stage Plasmodium berghei infected in Huh7 cells. In kind it is functional, Huh-7.
Series [2] concerns Plasmodium berghei. Nature of the series: Antiplasmodial activity against liver stage Plasmodium berghei infected in Huh7 cells assessed as inhibition of parasite infection incubated for 1 hr prior to infection measured at 24 hrs by luciferase reporter gene assay. The following applies: Huh-7, Liver. The format is functional, organism-based. In general terms: A reporter such as luciferase makes a cellular process visible.

Series [3] can be described thus: Cytotoxicity against HEK293T cells assessed as cell viability after 48 hrs by MTT assay. The format is cell-based. The following applies: Homo sapiens, HEK-293T. In general terms: Tetrazolium assays rely on reduction of a dye to a coloured formazan, in cell work by metabolically active cells.
For series [4], the system named is Plasmodium falciparum. Nature of the series: Antiplasmodial activity against chloroquine-resistant Plasmodium falciparum W2 infected in human erythrocytes after 48 hrs by flow cytometry. In kind it is functional, organism-based. Conditions: W2, 48 h. Background: A flow cytometer gives signals particle by particle.
Series [5] in a line: Cytotoxicity against human HuH7 cells infected with Plasmodium berghei assessed as cell proliferation at 1 to 10 uM by Alamar blue assay. The format is cell-based. Conditions: huh-7, 10 µM.
Series [6] relates to Plasmodium falciparum. Nature of the series: Antiplasmodial activity against chloroquine-resistant Plasmodium falciparum W2 infected in human erythrocytes after 24 hrs by [3H]-hypoxanthine incorporation assay. The format is functional, organism-based.

In the case of `CCCCOc1c(NCCCC(C)Nc2cc(OC)cc3cccnc23)c(=O)c1=O` (configuration not stated), in series [1], the “Ratio IC50” value came out at 4.3. In addition, in series [2], the IC50 stood at 1.3 µM.
Turning to `COc1cc(NC(C)CCCNc2c(NCCCC(C)Nc3cc(OC)cc4cccnc34)c(=O)c2=O)c2ncccc2c1` (configuration not stated), the “Ratio IC50” value in series [1] came to 4.3. Also, the IC50 in series [2] was found to be 1.3 µM.
In the case of `CCCCOc1c(NCCNc2cc(OC)cc3cccnc23)c(=O)c1=O`, the IC50 in series [3] is more than 100 µM; in series [4] it was 8.5 µM. Also, the Activity entry in series [5] is recorded as “Non-toxic”.
As to `CCCCOc1c(Nc2cc(OC)cc3cccnc23)c(=O)c1=O`, the IC50 in series [4] was more than 10 µM. In series [5], the Activity result is on record as “Non-toxic”.
`COc1cc(NC(C)CCCN/C(C)=C2/CCOC2=O)c2ncccc2c1` (configuration not stated): the IC50 is 1.6 µM in series [6] and 10 µM in series [2].
`CCCCNc1c(NCCCC(C)Nc2cc(OC)cc3cccnc23)c(=O)c1=O` (configuration not stated): the IC50 in series [4] was more than 10 µM. Moreover, in series [5], the Activity result is “Non-toxic”.
Consider `CCCCOc1c(NCCC(C)Nc2cc(OC)cc3cccnc23)c(=O)c1=O` (configuration not stated), for which the IC50 in series [3] is more than 100 µM; in series [4], 5.1 µM. In addition, in series [5], the Activity result is reported as “Non-toxic”.
Turning to `CCCCOc1c(NCCCCCNc2cc(OC)cc3cccnc23)c(=O)c1=O`, the IC50 in series [3] is more than 100 µM; in series [4] it was more than 10 µM; in series [2], 2.2 µM. Also, the “Ratio IC50” value in series [1] worked out at 4.3. Also, the Activity result in series [5] is “Non-toxic”.
With `CCCCOc1c(NCCCNc2cc(OC)cc3cccnc23)c(=O)c1=O`, the IC50 in series [3] is more than 100 µM; in series [4] it was 5.1 µM; in series [2], 1.8 µM. For the same compound, the “Ratio IC50” value in series [1] turned out to be 4.3. The Activity result in series [5] is reported as “Non-toxic”.
`CCOc1c(NCCCC(C)Nc2cc(OC)cc3cccnc23)c(=O)c1=O` (configuration not stated): the IC50 is more than 100 µM in series [3] and 7.3 µM in series [4]. In addition, in series [5], the Activity entry was “Non-toxic”.
Turning to `COc1cc(NC(C)CCCNc2c(OC)c(=O)c2=O)c2ncccc2c1` (configuration not stated), the IC50 in series [4] is more than 10 µM. Further, in series [5], the Activity entry is on record as “Non-toxic”.
For `COc1cc(NC(C)CCCN)c2ncccc2c1` (configuration not stated) [PRIMAQUINE], the IC50 in series [2] came to 9.5 µM.
